Experimental data taken from article PMC5216742, “Discovery and characterization of a novel potent type II native and mutant BCR-ABL inhibitor (CHMFL-074) for Chronic Myeloid Leukemia (CML)” (Oncotarget, 2016).
pEC50, pIC50: −log10 of the molar value.

Columns and labels:
[1] = biological target: T1, ABL1(Q252H)-nonphosphorylated (Homo sapiens, UniProt P00519, Q252H); assay: KinomeScan profiling; assay type: binding; conditions: 1 µM CHMFL-074; read-out: % Control
T1 construct: purchased DiscoveRx (KinomeScan service)

BCR-DDR2-BaF3 = assay: Anti-proliferation, BaF3 isogenic cell lines; assay type: cell-based; conditions: Mus musculus, BaF3, 72 h
Text: (§1) Retroviral constructs for fusion kinases were made based on the pMSCVpuro (Clontech) backbone. For TEL fusion vectors, the first 1 kb of human TEL gene with an artificial myristoylation sequence ([…]) was cloned into pMSCVpuro retroviral vector, followed by a 3xFLAG tag sequence and a stop codon; for BCR fusion vectors, the first 2.8 kb coding region of p210 amplified from K562 cell line was used in fusion constructs. Then the kinase domain coding sequences were inserted in-frame between TEL/BCR and 3xFLAG sequences. All mutagenesis were performed using the QuikChange Site-Directed Mutagenesis Kit (Stratagene) following the manufacturer's instructions. Retrovirus was packaged in HEK293T cells by transfecting kinase-fusion MSCV vectors together with two helper plasmids, virus supernatants were harvested 48 hours after transfection and filtered before infection. Then BaF3 cells were infected with harvested virus supernatants using spinoculation protocol and stable cell lines were obtained by puromycin selection for 48 hours. A second selection in the absence of IL-3 was performed to obtain IL-3 independent cell lines that solely depend on the introduced kinase activities for cell proliferation.
(§2) A density of 1 × 10^4 to 2.5 × 10^4 cells/mL cells were mixed with various concentrations of compounds then 100 μL suspension was added to each well and incubated for 72 hours. Cell viability was determined using the CellTiter-Glo assay (Promega, USA) or CCK-8 assay (Beboy, China). Both assays were performed according to the manufacturer instructions. For CellTiter-Glo assay, luminescence was determined in a multi-label reader (Envision, PerkinElmer, USA). […] Data were normalized to control group (DMSO). GI50 were calculated using Prism 6.0 (GraphPad Software, San Diego, CA).

Tel-RET-BaF3 = assay: Anti-proliferation, BaF3 isogenic cell lines; assay type: cell-based; conditions: Mus musculus, BaF3, 72 h
Text: as §1, §2

Tel-LCK-BaF3 = assay: Anti-proliferation, BaF3 isogenic cell lines; assay type: cell-based; conditions: Mus musculus; Tel-LCK-BaF3, 72 hours
Text: as §1, §2

U937 = assay: Anti-proliferation, intact cancer cell lines; assay type: cell-based; conditions: Homo sapiens, U-937, 72 h
Protocol: (§3) The K562 (CML), KU812 (CML), MEG-01 (CML), MV4-11 (AML), MOLM14 (AML), U937 (AML), REC-1 (Human B-cell lymphoma cell), HL-60 (Human promyelocytic leukemia cells), MEC-1(CLL), CHL (Hamster lung cell), CHO (Hamster ovary cell) cell lines were obtained from American Type Culture Collection (Manassas, VA). All the cells were grown in a humidified incubator (Thermo, USA) at 37°C under 5% CO2. CHO cells were maintained in DMEM supplemented with 10% FBS, 1% penicillin/strepto-mycin. MV4-11 (AML) were grown in IMDM supplemented with 10% FBS, 1% penicillin/streptomycin. […] For suspension cells, cells were collected by spinning down at 800 rpm/min for 5 min before use.
as §2

MEG-01 = assay: Anti-proliferation, intact cancer cell lines; assay type: cell-based; conditions: Homo sapiens, MEG-01, 72 h
Protocol: as §3, §2

KU812 = assay: Anti-proliferation, intact cancer cell lines; assay type: cell-based; conditions: Homo sapiens; KU812 (CML), 72 hours
Protocol: as §3, §2

HL-60 = assay: Anti-proliferation, intact cancer cell lines; assay type: cell-based; conditions: Homo sapiens, HL-60, 72 h
Protocol: as §3, §2

K562 = assay: Anti-proliferation, intact cancer cell lines; assay type: cell-based; conditions: Homo sapiens; K562 (CML), 72 hours
Protocol: as §3, §2

MEC-1 = assay: Anti-proliferation, intact cancer cell lines; assay type: cell-based; conditions: Homo sapiens, MEC1, 72 h
Protocol: as §3, §2

REC-1 = assay: Anti-proliferation, intact cancer cell lines; assay type: cell-based; conditions: Homo sapiens, Rec1, 72 h
Protocol: as §3, §2

BCR-ABL = biological target: T2, BCR-ABL (Homo sapiens, UniProt P00519); assay: BCR-ABL auto-phosphorylation (Y245) immunoblotting in K562 cells; assay type: cell-based
T2 construct: BCR N-terminal part (natural fusion partner of p210 BCR-ABL); endogenous in cells; host or cells: K562
Protocol: Cells were washed with ice cold phosphate buffered saline (PBS), lysed using radio-immunoprecipitation (RIPA) buffer [150 mM NaCl, 1% (vol/vol) Nonidet P-40, 0.5% (wt/vol) sodium deoxycholate, 0.1% (wt/vol) SDS] in 50 mM Tris HCl (pH 8.0) supplemented with protease and phosphatase inhibitors (Thermo, USA). Protein concentrations were determined using the BCA Protein Assay kit (Beyotime, China) according to the manufacturer's protocol. Proteins were separated by SDS-PAGE and transferred to an Immobilon-P PVDF membrane (Millipore, USA), and blocked in 5% dry milk in Tris Buffered Saline, with Tween 20 (TBST). Membranes were incubated with primary and secondary antibodies, and target proteins were detected with ECL detection reagent (Pierce, USA). β-Actin (Sigma-Aldrich) served as a loading control. Phospho-c-Abl (Tyr245)(73E5) Rabbit mAb (2868), c-Abl antibody (2862), STAT5 (3H7) Rabbit mAb (9358), Phospho-STAT5 (Tyr694)(C71E5) Rabbit mAb (9314), Akt (pan)(C67E7) Rabbit mAb (4691), Phospho-Akt (Thr308) (244F9) Rabbit mAb (4056), Phospho-Akt (Ser473) (D9E) XP® Rabbit mAb (4060), Phospho-CrkL (Tyr207) antibody (3181), CrkL (32H4) Mouse mAb (3182), Phospho-p44/42 MAPK (Erk1/2) (Thr202/Tyr204) (197G2) Rabbit mAb (4377), p44/42 MAPK (Erk1/2) (137F5) Rabbit mAb (4695) antibodies were obtained from Cell Signaling Technology (MA, USA).

c-KIT = biological target: T3, c-KIT (Homo sapiens, UniProt P10721); assay: Invitrogen Z'LYTE biochemical kinase assay
T3 construct: made in house
T3 sequence (P10721 26-976): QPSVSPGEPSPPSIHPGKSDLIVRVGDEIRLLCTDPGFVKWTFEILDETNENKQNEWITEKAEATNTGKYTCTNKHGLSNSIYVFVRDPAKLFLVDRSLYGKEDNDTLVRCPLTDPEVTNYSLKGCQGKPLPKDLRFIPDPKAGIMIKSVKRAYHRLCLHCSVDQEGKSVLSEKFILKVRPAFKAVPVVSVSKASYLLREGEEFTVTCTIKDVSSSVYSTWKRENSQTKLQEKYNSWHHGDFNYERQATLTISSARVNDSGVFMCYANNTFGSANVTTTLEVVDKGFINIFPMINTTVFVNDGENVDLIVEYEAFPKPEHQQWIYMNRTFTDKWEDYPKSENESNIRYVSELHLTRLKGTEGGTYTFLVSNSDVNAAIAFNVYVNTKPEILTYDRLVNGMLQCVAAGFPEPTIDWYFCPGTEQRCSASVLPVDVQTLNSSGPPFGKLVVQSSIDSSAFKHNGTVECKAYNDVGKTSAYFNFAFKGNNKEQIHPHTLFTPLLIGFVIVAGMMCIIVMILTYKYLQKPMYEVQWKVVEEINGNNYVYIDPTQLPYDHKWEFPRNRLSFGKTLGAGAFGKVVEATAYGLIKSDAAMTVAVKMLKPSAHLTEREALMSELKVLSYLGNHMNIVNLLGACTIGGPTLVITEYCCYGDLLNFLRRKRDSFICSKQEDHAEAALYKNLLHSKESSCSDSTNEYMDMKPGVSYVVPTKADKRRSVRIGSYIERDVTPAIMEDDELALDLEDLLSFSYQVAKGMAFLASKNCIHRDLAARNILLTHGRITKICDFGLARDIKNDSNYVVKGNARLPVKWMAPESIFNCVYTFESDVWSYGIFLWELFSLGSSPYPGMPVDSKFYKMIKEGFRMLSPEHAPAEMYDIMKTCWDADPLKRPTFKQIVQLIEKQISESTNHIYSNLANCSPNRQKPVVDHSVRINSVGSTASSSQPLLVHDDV
Protocol: The fluorescence resonance energy transfer-based Z'-LYTE kinase assay (Invitrogen, USA) was used to evaluate the IC50 value of CHMFL-074 for inhibition of ABL and KIT kinase. […] After 1 hour incubation, the reaction was developed and terminated, and the fluorescence measured with an automated plate reader (SpectraMax I3, USA). A dose-response curve was fitted using Prism 5.0 (GraphPad Software Inc., San Diego, CA).

KIT(V559D) = biological target: T4, KIT(V559D) (Homo sapiens, UniProt P10721, V559D); assay: KinomeScan profiling; assay type: binding; conditions: 1 µM CHMFL-074; read-out: % Control
T4 construct: purchased DiscoveRx (KinomeScan service)
T4 sequence (P10721 26-976 V559D): as the sequence (P10721 26-976) above, with V534D counted along it

[2] = biological target: T5, ABL1(Y253F)-phosphorylated (Homo sapiens, UniProt P00519, Y253F); assay: KinomeScan profiling; assay type: binding; conditions: 1 µM CHMFL-074; read-out: % Control
T5 construct: purchased DiscoveRx (KinomeScan service)

Cc1ccc(NC(=O)c2ccc(CN3CCN(C)CC3)c(C(F)(F)F)c2)cc1OC1CCN(C(=O)c2cccnc2)CC1 [CHMFL-074]
remaining binding at 1 µM [1]: 0.75% | GI50 (BCR-DDR2-BaF3): 2670 nM | GI50 (Tel-RET-BaF3): 630 nM | GI50 (Tel-LCK-BaF3): 2020 nM | GI50 (U937): > 10000 nM | GI50 (MEG-01): 18 nM | GI50 (KU812): 57 nM | GI50 (HL-60): > 10000 nM | GI50 (K562): 56 nM | GI50 (MEC-1): > 10000 nM | GI50 (REC-1): > 10000 nM | pEC50 (BCR-ABL): > 7.00 | fold less active against c-KIT than ABL1 kinase (c-KIT): about 12 fold | pIC50 (c-KIT; ATP 300 μM, read-out: IC50 against c-KIT): 6.54 | remaining binding at 1 µM (KIT(V559D)): 0.45% | remaining binding at 1 µM [2]: 0.3%
